Data taken from patent US8536115B2, “Compositions and methods for modulating AMPA receptor-mediated excitotoxicity” (Centre for Addiction and Mental Health, priority 2006, dated 2013).
No end group written: not given here.

How the values were obtained:
GAPDH:AMPAR complex [1] = target: T1, GAPDH:AMPAR complex (Homo sapiens, UniProt P04406); experiment: Co-immunoprecipitation of GAPDH with GluR2 in HEK-293T cells expressing GluR1/GluR2; type: cell-based
T1 construct: It should be noted that HEK293T cells expresses endogenous GAPDH; expressed in transfected cells; host or cells: HEK-293T (GluR1 and GluR2 transfected; GAPDH endogenous)
T1 sequence (P04406 2-335 limits assumed, one chain of several): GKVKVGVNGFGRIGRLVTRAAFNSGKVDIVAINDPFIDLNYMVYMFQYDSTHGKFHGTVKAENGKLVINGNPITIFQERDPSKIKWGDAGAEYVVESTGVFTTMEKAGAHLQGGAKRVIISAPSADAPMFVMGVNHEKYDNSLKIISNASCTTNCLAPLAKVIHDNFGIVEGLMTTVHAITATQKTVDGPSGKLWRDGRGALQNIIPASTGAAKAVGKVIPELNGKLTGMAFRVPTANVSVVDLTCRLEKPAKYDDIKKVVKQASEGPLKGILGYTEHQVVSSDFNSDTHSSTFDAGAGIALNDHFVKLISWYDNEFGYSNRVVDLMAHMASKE
Method: (§1) Protein affinity purification, in vitro binding, co-immunoprecipitation and Western blot analyses were performed as previously described (73, 79). Antibodies used for immunoprecipitation, Western blots and cell surface ELISA assays included GAPDH (polyclonal from Abcam, monoclonal from Chemicon), GluR2 (Western blots: Chemicon; immunoprecipitation: Upstate), HA (monoclonal, Covance), α-tubulin (monoclonal, Sigma-Aldrich), LaminB1 (Zymed Laboratories).

[2] = system: HEK-293T cells expressing GluR1/2; experiment: Quantification of AMPAR-mediated cell death (propidium iodide fluorescence) in HEK-293T cells expressing GluR1/2; type: cell-based; details: for attenuation/inhibition of AMPAR-mediated (glutamate-induced) cell death: pretreatment 10 μM, 1 hr, 300 μM glutamate, 25 μM CTZ, 24 hr, n=9
Method: (§2) Cells were allowed to recover for 24 hours at 37° C. To quantify AMPA-mediated cell death, culture medium was replaced by extracellular solution containing 50 μg/ml of propidium iodide (PI) (Invitrogen). After 30 minutes incubation at 37° C., fluorescence intensity in each well was measured with a plate reader (Victor3; PerkinElmer). […] Primary hippocampal neurons were exposed to 100 μM KA/25 μM cyclothiazide in medium at 37° C. for 1 hour, at 37° C.

[3] = system: HEK-293T cells expressing NR1-1a/2A NMDA receptor; experiment: NR1-1a/2A NMDA receptor-mediated cell death in HEK-293T cells; type: cell-based; details: depletion of calcium with 5 mM EGTA; n=9
[4] = system: HEK-293T cells expressing GluR1/3; experiment: GluR1/3 AMPAR-mediated cell death in HEK-293T cells; type: cell-based; details: pre-incubation; HEK-293T expressing GluR1/3
Method: as §2

p53 = target: T2, p53 (Rattus norvegicus, UniProt P10361); experiment: Affinity pull down of p53 from rat hippocampal extracts by GST-GAPDH fragments; type: binding
T2 construct: from tissue; host or cells: solubilized nuclear proteins / extracts of rat hippocampus
T2 sequence (P10361 whole entry, the tested form may be a part): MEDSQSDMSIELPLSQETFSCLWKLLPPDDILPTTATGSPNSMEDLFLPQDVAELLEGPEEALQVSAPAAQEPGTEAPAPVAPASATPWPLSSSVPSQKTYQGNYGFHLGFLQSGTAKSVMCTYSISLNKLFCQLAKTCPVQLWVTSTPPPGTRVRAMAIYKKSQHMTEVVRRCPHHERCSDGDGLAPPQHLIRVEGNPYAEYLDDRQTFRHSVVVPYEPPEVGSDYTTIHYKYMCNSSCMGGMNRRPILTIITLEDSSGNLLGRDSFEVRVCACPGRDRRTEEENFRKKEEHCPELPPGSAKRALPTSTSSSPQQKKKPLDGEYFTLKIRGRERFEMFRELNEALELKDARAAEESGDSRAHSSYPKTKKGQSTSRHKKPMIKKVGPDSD
Method: as §1
(§3) Thus, we tested whether GluR2NT and GAPDH can interact with p53 using affinity “pull down” purification experiments. […] To identify the p53 interacting domain on GAPDH, GST-fusion proteins encoding truncated fragments of GAPDH were constructed and used in affinity purification assays (FIG. 24D). […] Furthermore, we confirmed the essential role of I221-E250 in maintaining GAPDH-p53 coupling.

GAPDH = target: T3, GAPDH (Rattus norvegicus, UniProt P04797); experiment: Affinity purification of GAPDH from rat hippocampal extracts by GST-fusion proteins; type: binding; details: solubilized rat hippocampal extracts
T3 construct: from tissue; host or cells: detergent extracts of rat hippocampus
T3 sequence (P04797 whole entry, the tested form may be a part): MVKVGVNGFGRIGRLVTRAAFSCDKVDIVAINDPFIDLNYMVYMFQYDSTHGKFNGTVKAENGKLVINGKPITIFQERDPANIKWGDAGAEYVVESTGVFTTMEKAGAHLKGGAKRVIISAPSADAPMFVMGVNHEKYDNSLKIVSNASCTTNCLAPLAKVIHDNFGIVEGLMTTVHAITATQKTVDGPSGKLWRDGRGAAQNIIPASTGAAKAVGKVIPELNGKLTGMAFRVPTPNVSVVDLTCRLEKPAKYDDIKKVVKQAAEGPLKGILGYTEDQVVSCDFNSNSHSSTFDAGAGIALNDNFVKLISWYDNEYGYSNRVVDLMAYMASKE
Method: as §1
We then further divided the GluR2 NTa3 region into 30 amino acids GST-fusion proteins and mini-genes (GluR2 NTa3-1: H122-E141, 20 a.a; GluR2 NT1-3-2 Y142-K172, 30 a.a) to delineate the region of GluR2 NTa3 involved in the interactions (FIG. 6A). GluR2 NT1-3-2, but not GluR2 NTa3-1 or GST alone, precipitated GAPDH in rat hippocampal extracts in affinity purification assays (FIG. 6B). This was also supported by a blot overlay experiment where [35S]-GAPDH probe bound with GluR2 NT1-3-2, but not GluR2 NTa3-1 or GST alone (FIG. 6C).

[35S]-GAPDH = target: T4, [35S]-GAPDH (Homo sapiens, UniProt P04406); experiment: In vitro binding (blot overlay) with [35S]-GAPDH probe; details: in vitro binding assay
T4 construct: made in house
T4 sequence (P04406 whole entry): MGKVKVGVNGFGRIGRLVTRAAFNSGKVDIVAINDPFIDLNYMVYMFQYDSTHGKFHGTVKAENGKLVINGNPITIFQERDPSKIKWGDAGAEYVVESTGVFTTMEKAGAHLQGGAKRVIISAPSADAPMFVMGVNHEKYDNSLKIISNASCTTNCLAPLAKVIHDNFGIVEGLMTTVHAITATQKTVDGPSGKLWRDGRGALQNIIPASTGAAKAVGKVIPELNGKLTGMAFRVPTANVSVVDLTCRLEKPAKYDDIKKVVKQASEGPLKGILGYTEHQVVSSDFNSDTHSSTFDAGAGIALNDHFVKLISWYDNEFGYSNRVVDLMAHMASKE
Method: as §1
In order to delineate the region of the GluR2NT involved in the interaction with the GAPDH, three GluR2NT GST-fusion proteins [GluR2 NTa V22-S271, (250 a.a), GluR2 NTb K272-421, (150 a.a), GluR2 NTc L422-E545, (124 a.a)] were constructed (FIG. 4A). In affinity purification assays, GluR2 NTa, but not GluR2 NTb, GluR2 NTc or GST alone precipitated GAPDH in rat hippocampal brain extract (FIG. 4B). […] To clarify the nature of the interaction, blot overlay experiments were performed, which provided in vitro evidence for a direct interaction. GluR2 NTa, GluR2 NTb and GluR2 NTc were probed with in vitro translated [35S]-methionine labelled peptides encoding GAPDH ([35S]-GAPDH). The [35S]-GAPDH probe bound with GluR2 NTa, but not GluR2 NTb or GluR2 NTc. […]

[5] = system: cultured rat hippocampal neurons; experiment: AMPAR-mediated cell death (PI fluorescence) in cultured rat hippocampal neurons; type: cell-based; details: 100 μM KA, 10 μM MK-801, 2 μM nimodipine, 1 hr; n=9
Method: (§4) Primary cultures from hippocampus were prepared from fetal Wistar rats (embryonic day 17-19) on Cell^+ (Sarstedt) culture dishes as previously described (73). The cultures were used for experiments on 12-15 d after plating. Hippocampal cultures were pretreated with GluR2 NT1-3-2 peptides before kainic acid treatment.
Cells were allowed to recover for 24 hours at 37° C. To quantify AMPA-mediated cell death, culture medium was replaced by extracellular solution containing 50 μg/ml of propidium iodide (PI) (Invitrogen). After 30 minutes incubation at 37° C., fluorescence intensity in each well was measured with a plate reader (Victor3; PerkinElmer). […]
To examine the GAPDH:AMPAR interactions in a relevant cellular milieu, primary cultures of rat hippocampal neurons were utilized in parallel experiments. We have previously shown in FIG. 21C that pre-incubating hippocampal neurons with the GluR2 NT1-3-2 peptide could disrupt the GAPDH-GluR2 interaction that was promoted by AMPAR activation. We subsequently examined if disruption of this interaction in hippocampal neurons could rescue cells from AMPAR-mediated cell death. AMPAR-mediated cell death was induced by pretreating neurons with kainic acid (KA; 100 μM, 1 hour) in the presence of NMDA receptor and Ca^2+ channel antagonists (10 μM MK-801 and 2 μM nimodipine, respectively).

[6] = system: nontransfected HEK-293T cells; experiment: Cell death in HEK-293T cells in the absence of GluR1/GluR2 co-expression; type: cell-based
Method: as §2

[7] = system: transfected HEK-293T cells; experiment: Cell-ELISA of cell surface GluR2 and GAPDH in transfected HEK-293T cells; type: cell-based; details: GluR1/GluR2; glutamate
Method: Cell-ELISA assays (colorimetric assays) were done essentially as previously described (82). […] Cells were incubated in 1% (W/V) glycine for 10 minutes at 4° C. to recover from the fixing. Cells were then incubated with a monoclonal antibody against specific antibodies for the purpose of labeling the receptors or proteins on the cell surface under non-permeabilized conditions or the entire receptor pool under permeabilized conditions. After incubation with corresponding HRP-conjugated secondary antibodies (Sigma-Aldrich), the HRP substrate o-phenylenediamine (Sigma-Aldrich Co) was added to produce a color reaction that was stopped with the equal volume of 3N HCl. Fluorescence intensity in each well was measured with a plate reader (Victor3; PerkinElmer). […] Afterwards, cells were scrapped from the dishes, and the protein concentration of each dish was measured. The results of cell surface expression of receptors or proteins were calibrated by the protein concentration of each well. Analysis was done using at least 9 separate wells in each group.
GAPDH:AMPAR complex [8] = target: T5, GAPDH:AMPAR complex (Rattus norvegicus, UniProt P04797); experiment: Co-immunoprecipitation of GAPDH with GluR2 in primary cultures of rat hippocampal neurons; type: cell-based; details: preincubation 10 μM, 1 hour; 100 μM kainic acid, 30 min
T5 construct: endogenous in cells; host or cells: primary hippocampal neurons from fetal Wistar rats
T5 sequence (P04797 whole entry, one chain of several): as the sequence (P04797 whole entry, the tested form may be a part) above
Method: as §4, §1

[9] = system: HEK-293T cells cotransfected with GluR1/GluR2; experiment: Nuclear translocation of GAPDH and GluR2 in HEK-293T cells (nuclei, Western blot); type: cell-based; details: peptide 10 μM, 1 hr; glutamate 100 μM, 30 min
Method: as §1
(§5) Nuclei isolation was prepared as described previously (55, 66). Briefly, cells were gently rinsed twice with ice-cold PBS. And scraped in 1 ml of solution 1 (10 mM Tris-HCl, pH7.4, 100 mM NaCl2, 2.5 mM MgCl2, 0.5% NP-40, proteinase inhibitor and PMSF) per 10-cm plate. Then cells were homogenized by four passages through a 25-gauge needle and spin at 3000 g briefly. Pellets containing nuclei were subsequently utilized in biochemical assays.

hippocampal neurons = experiment: Nuclear translocation of GAPDH and GluR2 in hippocampal neurons; type: cell-based, rat; details: peptide 10 μM, 1 hr; 100 μM KA, 10 μM MK-801, 2 μM nimodipine, 30 min
Method: as §4, §1, §5

GAPDH-p53 interaction = experiment: Co-immunoprecipitation of GAPDH with p53; type: cell-based; details: extracted nuclear proteins; AMPAR activation
Method: as §1, §5, §3

hippocampal CA1 neurons = experiment: Four vessel occlusion ischemia model, cresyl violet-stained nuclei in CA1; type: in vivo, rat; details: 1 μM, 0.5 μl into hippocampus, 5-day recirculation
Method: In this study, a cannula (small diameter stainless steel tubes) was implanted in the animal one week before surgery. This cannula was used to deliver the peptide GluR2 NT1-3-2 (1 μM, 0.5 μl) into hippocampus where GAPDH-GluR2 interaction is considered to occur. On the surgery day, the four vessel occlusion ischemia model was performed in order to induce ischemia. Animals were treated with the peptide GluR2 NT1-3-2 either before (30 min) or after (2 hour) the induction of ischemia to examine the neuroprotective effect of the peptide. After a 5-day recirculation period, animals were decapitated, the brains were removed and dissected to harvest the hippocampus. Cresyl violet was used to stain alive neurons in hippocampus region of each animal. Cresyl violet-stained nuclei were observed by microscope and total number of stained nuclei in CA 1 region was summarized and normalized to the sham-operated group.

N#Cc1cc2c(cc1[N+](=O)[O-])=NC(=O)C(=O)N=2 [CNQX, 6-cyano-7-nitroquinoxaline-2,3-dione]
association between GAPDH and GluR2 with antagonist (GAPDH:AMPAR complex [1]; glutamate-activated AMPA receptor): decreased

O=C(O)CN(CCOCCOCCN(CC(=O)O)CC(=O)O)CC(=O)O [EGTA, reference compound]
GluR1/GluR2 AMPAR-mediated cell death on depletion of calcium ([2]; 5 mM EGTA): remained intact | inhibition of NR1-1a/2A NMDA receptor-mediated cell death [3]: 38±3.6%

N[C@@H](CCC(=O)O)C(=O)O [Glutamate]
CO-IP of GAPDH by the GluR2 subunit antibody on agonist activation (GAPDH:AMPAR complex [1]): increase

Cc1ccc(-c2cn3c4c(sc3n2)CCCC4)cc1 [cyclic PFT-α, reference compound]
attenuation/inhibition of AMPAR-mediated (glutamate-induced) cell death [2]: 49.8±8.3% | inhibition of GluR1/3 AMPAR-mediated (glutamate-induced) cell death [4]: failed to inhibit

GST-GAPDH(2-2-1-1): GST-fusion protein encoding truncated GAPDH fragment I221-E250
pull down of p53 (p53): specifically pulled down

GST-GluR2 NT1-3-2: GST-fusion protein of GluR2 NT1-3-2 Y142-K172 (YYQWDKFAYLYDSDRGLSTLQAVLDSAAEKK; not fully specified (N-terminus); also: GST fusion partner)
affinity precipitation of GAPDH (Western blot) (GAPDH): presence of GAPDH | binding of [35S]-GAPDH probe ([35S]-GAPDH): bound

GluR2 NT1-3-2 peptide: polypeptide of the GluR2 NT1-3-2 (Y142-K172) amino acid sequence (SEQ ID NO:1) (YYQWDKFAYLYDSDRGLSTLQAVLDSAAEKK; Y142-K172 of GluR2 subunit receptor from homo sapiens)
effect of the peptide itself on cell death in the absence of glutamate treatment ([2]; GluR1/2 transfected cells, no glutamate): no effect | attenuation/inhibition of AMPAR-mediated (glutamate-induced) cell death [2]: 56±1.6% | inhibition of AMPAR-mediated cell death [5]: 47.6±3.3% | inhibition of GluR1/3 AMPAR-mediated (glutamate-induced) cell death [4]: failed to inhibit | effect of the peptide itself in the absence of GluR1/GluR2 co-expression [6]: no effect | agonist-induced GAPDH internalization after preincubation of peptide [7]: abolished | agonist-induced increase in GAPDH:AMPAR complex formation (GAPDH:AMPAR complex [1]; preincubation 10 μM, 1 hour, 100 μM glutamate, 30 min): significantly inhibited | agonist-induced increase in GAPDH:AMPAR complex formation (GAPDH:AMPAR complex [8]): significantly inhibited | nuclear translocation of GAPDH and GluR2 [9]: blocked | nuclear translocation of GAPDH and GluR2 (hippocampal neurons): blocked | GAPDH-p53 interaction after peptide pretreatment (GAPDH-p53 interaction): inhibited | neurons rescued from cell death, peptide treatment before ischemia (hippocampal CA1 neurons; 30 min before ischemia): 18.2% | neurons rescued from cell death, peptide treatment after ischemia (hippocampal CA1 neurons; 2 hour after ischemia): 13.2%
